# According to patent US20260138981A1, “DIHYDROFOLATE REDUCTASE INHIBITORS FOR ANTI-BIOTIC RESISTANT INFECTIONS” (THE TRUSTEES OF PRINCETON UNIVERSITY, priority 2022, published 2026):
# What was measured:
# P. aeruginosa PA14 [1] = experiment: Colony forming units (CFU) counting after 4-hour treatment; type: cell-based; details: rich media, PA14, 2×MIC, CFU/mL
# Protocol: Data points represent 3 biological replicates with 3 technical replicates. Mean±SD are shown.
# P. aeruginosa PA14 overnight cultures were diluted 1:100 and grown to exponential phase (OD600=0.4-0.6). Cultures were diluted 1:10 and treated with antibiotic. At each time point, 150 μL of culture was removed, serial diluted 1:10 six times, and plated onto LB Agar plates. Plates were grown overnight at 37° C. after which visible colonies were counted. CFU/mL was reported from dilutions in which ˜10-100 single colonies were visible.
# E. coli MG1655 = experiment: Growth with TMI supplementation; type: cell-based; details: E. coli MG1655, fluorofolin 2×MIC, 0.3 mM thymine, methionine, inosine
# Protocol: (§1) FIGS. 3A and 3B characterize the growth of E. coli MG1655 and P. aeruginosa PA14 respectively in 0.3 mM thymine, methionine, and inosine (TMI) supplemented media and treated with fluorofolin at 2×MIC or DMSO. Curves represent optical at 600 nm (OD600) of 2 biological replicates. Mean±SD are shown.
# (§2) Where listed, growth media were prepared according manufacturer recommendations: LB Broth and LB Broth supplemented with 0.3 mM thymine (BD Biosciences 244610, Alfa Aesar A15879), 0.3 mM methionine (Sigma-Aldrich M9625), 0.3 mM inosine (EMD Millipore 4060), Mueller Hinton II Broth (Cation-Adjusted)/(CAMHB) (BD 212322) or 0.3 mM thymidine (Sigma-Aldrich T1895), Gutnick Minimal Media (1.0 g/L K2SO4, 13.5 g/L K2HPO4, 4.7 g/L KH2PO4, 0.1 g/L of MgSO4-7H2O, 10 mM NH4Cl as a nitrogen source, and 0.4% w/v glucose as a carbon source)^62.
# P. aeruginosa PA14 [2] = experiment: Growth with TMI supplementation; type: cell-based; details: P. aeruginosa PA14, fluorofolin 2×MIC, 0.3 mM TMI
# Protocol: as §1, §2
# [3] = test system: P. aeruginosa PA01 and ATTC 27853, 5 ESKAPE pathogens; experiment: Growth inhibition of bacterial panel (summary statement); details: PA01, ATTC 27853 and all 5 ESKAPE pathogens tested
# Protocol: Overnight cultures were diluted 1:150 in LB Broth and added to a 96-well plate. Antibiotics were serially diluted 1:2 and added to columns of the 96-well plate and grown at 37° C. with continuous shaking. Cell growth was measured by optical density (OD600).
# 4-8 bacterial colonies of strains of interest were vortexed in saline and adjusted to an OD600 of 0.2. Strains were diluted 1:200 into CAMHB media into 96-well plates. Antibiotics were serially diluted 1:3 in DMSO, and 1 μL of each dilution was added to bacteria. The plates were incubated for 18-20 hours at 37° C. before observation.
# PBMC = type: cell-based; details: 72 h
# Protocol: FIG. 5D provides IC50 of fluorofolin against in vitro mammalian cell lines relative to the IC50 of IRS-16. HLF: human lung fibroblast, HK-2: human kidney epithelial, PBMC: peripheral blood mononuclear cell, WI-38: Embryonic lung tissue.
# After 24 hours, DMSO or compounds were added in 3-fold dilutions and incubated for 72 hours. For PBMC, CellTiter-Glo Reagent was added in equal volume and incubated for 30 min after which luminescence was read. For other cell types, CyQUANT Detection Reagent was added in equal volume and incubated for 1 hour after which fluorescence was read with standard green filter set (508/527 nm ex). Cell toxicity was evaluated by Pharmaron, Inc. (Beijing, […]).
# [4] = test system: co-cultures of E. coli MG1655 and P. aeruginosa PA14; experiment: Growth competition assay (co-culture); type: cell-based; details: 50 μg/mL fluorofolin, 1:1 inoculum, overnight, CFU
# Protocol: FIG. 3C characterizes competition of P. aeruginosa PA14 and E. coli MG1655 in LB or TMI-supplemented LB media. PA14 and E. coli MG1655 were inoculated at a 1:1 ratio and grown overnight in the presence or absence of 50 μg/mL fluorofolin in each media condition. The following day CFU were counted on LB-agar or Pseudomonas selection agar plates to determine CFU/mL of each species. Data represent mean±SD of triplicate biological and triplicate technical replicates. P values were calculated using unpaired t-test using Prism 9 (P value≤0.001)
# Overnight cultures of P. aeruginosa PA14 or E. coli MG1655 were diluted 1:150 into LB Broth in the presence of DMSO or 50 μg/mL fluorofolin with or without TMI supplementation and grown for 16 hours at 37° C. Cultures of each species were grown separately as well as being mixed 1:1. Cultures were plated onto LB Agar or Pseudomonas Selection Agar (Sigma-Aldrich 17208) and CFU counting was carried out as described above. To control for appropriate, Pseudomonas selection, E. coli MG1655 was plated onto Pseudomonas Selection Agar and an absence of colonies was observed. The number of colonies on Pseudomonas Selection Agar plates was reported as the CFU/mL of P. aeruginosa. To calculate CFU/mL of E. coli MG1655, CFU/mL were determined from LB Agar plates, and the CFU/mL of P. aeruginosa were subtracted from these values.
# P. aeruginosa PA14 [5] = experiment: Checkerboard assay of fluorofolin and sulfamethoxazole; type: cell-based
# Protocol: FIG. 2B is a Checkerboard assay of fluorofolin and sulfamethoxazole. Z-values represent fractional inhibitory concentrations (FICs). FICs were determined by dividing the MIC of each drug when used in combination by the MIC when used alone. FIC of less than or equal to 0.5 is considered a synergistic effect.
# Cells were seeded in a similar manner as described above for MIC calculations. Sulfamethoxazole (Chem-Impex 00821) was diluted 1:2 down the rows of the plate, while fluorofolin was diluted 1:2 down the column of the plate. Fractional inhibitory concentrations (FICs) were calculated as [fluorofolin]/MICFluorofolin+[SMX]/MICSMX where [fluorofolin] and [SMX] are the concentrations of compounds in given well, which are dividing by the concentration of drug at the MIC for each compound. FIC values less than or equal to 0.5 are considered synergistic.
# [6] = Serum binding (plasma protein binding, dialysis); type: in vitro ADME; details: mouse plasma
# Protocol: An initial t=0 sample was collected. fluorofolin was incubated with plasma for 6 hours after which dialysis was performed. After dialysis, supernatant was collected, and the amount of fluorofolin was determined by LC-MS/MS to determine the % Unbound of fluorofolin. Serum binding parameters were determined as follows: • 1. % Bound=100%−% Unbound • 2. Log K=Log (% Bound/100−% Bound) • 3. % Remaining=Area-ratio6hr/Area-ratio0hr×100% • 4. % Recovery was determined as (Area-ratiobuffer-chamber+Area-ratioplasma-chamber)/(Area-ratioTotal sample)×100 Serum binding analysis was performed by Pharmaron, Inc. (Beijing, ROC). C. elegans Maintenance and Toxicity Assay
compound,measurement,setting,value
Nc1nc(N)c2c(ccc3c2ccn3Cc2ccnc(F)c2)n1 [fluorofolin],type of antibacterial activity,P. aeruginosa PA14 [1],bacteriostatic
same,rescue of growth inhibition by TMI supplementation,E. coli MG1655,could also be rescued
same,rescue of growth inhibition by TMI supplementation,P. aeruginosa PA14 [2],unable to rescue
same,concentration inhibiting growth,[3],less than 50 μg/mL
same,increase in IC50 compared to IRS-16,PBMC,9.6 fold
same,"effect on co-culture, absence of TMI supplementation",[4]; LB,effectively killed both E. coli and P. aeruginosa
same,"effect on co-culture, presence of TMI supplementation",[4]; TMI-supplemented LB,selectively inhibited the growth of P. aeruginosa but not E. coli
same,MIC,"P. aeruginosa PA14 [5]; Pseudomonas aeruginosa, PA14, SMX 156 μg/mL, read-out: MIC of fluorofolin in the presence of SMX",0.4 µg/mL
same,"synergy (FIC, checkerboard)","P. aeruginosa PA14 [5]; combination of fluorofolin and sulfamethoxazole (SMX), PA14",significant synergy
same,"recovery at 6 h, 1 μM",[6],91.9%
